Data: patent publication US20090028839A1, “Compositions and methods for the prophylaxis and treatment of vaginal infections” (priority 2004, published 2009)

How the values were obtained:
Type in all cases: cell-based
E. coli = assay: Agar-well inhibition zones of Lactobacillus culture supernatants; conditions: 400 μl culture supernatant in agar well
Procedure: (§1) To test for their antimicrobial activity, all Lactobacillus isolates were grown anaerobically (to eliminate H2O2 production) in an MRS broth for 24 hours. The supernatants were collected and filter sterilized. Agar plates (Human Blood Tween agar for G.vaginalis, and Tryptic Soy agar with 5% sheep blood for other organisms) were inoculated with tested bacteria and 400 μl of each supernatant was added into the wells punched in the agar plates. The antimicrobial activity was determined by the size of the inhibition zones, similar to the disk method used for the determination of antibiotic activity. From our collection of clinical lactobacilli strains, we selected the strain identified as L. rhamnosus 160 since its extracellular product was characterized as having the highest antimicrobial activity, as shown in Table 1.

G. vaginalis ATCC 14018 = assay: as above; conditions: 400 μl culture supernatant in agar well
Procedure: as §1

Staphylococcus sp. = assay: as above; conditions: 400 μl culture supernatant in agar well
Procedure: as §1

Group B Streptococci = assay: as above; conditions: 400 μl culture supernatant in agar well
Procedure: as §1

[1] = system: clinical isolates of G. vaginalis; assay: Antibiotic resistance of clinical isolates
Text: The ability of G. vaginalis to induce HIV expression in vitro was investigated in chronically infected U1 cells by measuring HIV p24 antigen concentration. […] Moreover, we have also determined that clinical isolates of G. vaginalis are often resistant to metronidazol (73%), and clindamycin (38%), two drugs of choice for treatment of BV. […] Thus, the major BV-associated pathogens are able to increase sensitivity of human cells to HIV.

For `CC(O)C(=O)O` (stereo not drawn) [Lactic acid], the Zone of inhibition (E. coli) was 1.5 mm, the Zone of inhibition (G. vaginalis ATCC 14018) was 1.5 mm and the Zone of inhibition (Staphylococcus sp.) was 1.5 mm. For the same molecule, the Zone of inhibition (Group B Streptococci) was 1.5 mm.
In the case of `CCC[C@@H]1C[C@@H](C(=O)N[C@@H]([C@H]2O[C@H](SC)[C@H](O)[C@@H](O)[C@H]2O)[C@H](C)Cl)N(C)C1` [clindamycin], the “Share of clinical isolates of G. vaginalis resistant” value [1] is reported as 38%.
`Cc1ncc([N+](=O)[O-])n1CCO` [metronidazol] was tested, and the “Share of clinical isolates of G. vaginalis resistant” value [1] was 73%.
